Biological target: AlrBax (Dal1, alanine racemase from Bacillus anthracis Ames) (Bacillus anthracis, UniProt A0A6L7HC45)
Settings: covalent (internal aldimine with Lys41); pH 6.5; chloride ion and acetate in active site

AlrBax (Dal1, alanine racemase from Bacillus anthracis Ames), sequence (A0A6L7HC45 1-389 limits assumed): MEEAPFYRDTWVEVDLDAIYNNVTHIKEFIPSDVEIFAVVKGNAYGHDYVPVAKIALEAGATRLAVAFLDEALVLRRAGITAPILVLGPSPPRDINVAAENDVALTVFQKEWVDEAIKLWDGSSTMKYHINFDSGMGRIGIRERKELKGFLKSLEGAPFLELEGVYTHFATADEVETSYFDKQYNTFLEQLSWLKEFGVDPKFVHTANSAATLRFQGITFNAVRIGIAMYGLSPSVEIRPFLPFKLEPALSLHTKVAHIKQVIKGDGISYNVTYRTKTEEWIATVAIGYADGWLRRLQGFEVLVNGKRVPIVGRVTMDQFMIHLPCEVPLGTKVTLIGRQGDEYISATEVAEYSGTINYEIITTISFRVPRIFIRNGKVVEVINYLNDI

`Cc1ncc(COP(=O)(O)O)c(C=O)c1O` [PLP] was tested, and the “X-ray crystal structure, 1.95 Å” value was “In the AlrBax structure, Lys41 is seen covalently linked to the PLP cofactor”.
